Assay results from PMC10819771 (Pharmaceuticals, 2023).
Like-named read-outs stand apart in the source and are kept apart here.

Key:
FBCL-2T = assay: FRET-melting, FBCL-2T; format: binding; details: ligand 2 μM, DNA 0.2 μM, 10 mM KCl, 90 mM LiCl, pH 7.2
Method: (§1) FRET-melting experiments were conducted on a Stratagene MX3005P (Thermo Fisher Scientific, Illkirch-Graffenstaden, France) real-time PCR equipment in 96-well plates on the DNA sequences reported in Table 4. Experiments were performed in 10 mM lithium cacodylate buffer (pH 7.2) and either 10 mM KCl and 90 mM LiCl (FK-RAST, FBCL-2T, F21T, and FdxT) or 1 mM KCl and 99 mM LiCl (Fc-MYCT) concentrations, depending on the Tm of the G4s alone. The DNA concentration was 0.2 µM. […] Data are presented as an average of three independent measurements, each conducted in duplicate conditions (λexc = 492 nm, λem = 516 nm, T interval = 25–95 °C, ramp: 25 °C for 5 min, then 1 °C/min, measurements every 1 °C, 8× magnification of the fluorescence signal).

FdxT = assay: FRET-melting, duplex control FdxT; format: binding; details: ligand 2 μM, DNA 0.2 μM, 10 mM KCl, 90 mM LiCl, pH 7.2, hairpin duplex
Method: as §1

FK-RAST = assay: FRET-melting, FK-RAST; format: binding; details: ligand 2 μM, DNA 0.2 μM, 10 mM KCl, 90 mM LiCl, pH 7.2
Method: as §1

K562 = assay: MTS cell proliferation assay, K562; format: cell-based, human; details: MTS, 3-day incubation, leukemia cells, read-out: IC50 Values (μM) ± SEM K562
Method: The human leukemic cell line K562 was grown in RPMI 1640 medium (Life Technology-Invitrogen by Thermo Fisher Scientific, Saint-Aubin, France) supplemented with 10% fetal calf serum (FCS), antibiotics (100 U/mL penicillin, 100 µg/mL streptomycin), and L-glutamine, (Eurobio, Les Ulis, France) at 37 °C, 5% CO2 in air. The MTS cell proliferation assay (Promega, Charbonnières-les-Bains, France) is a colorimetric assay system, which measures the transformation of a tetrazolium component (MTS) into formazan produced by the mitochondria of viable cells. Cells were washed twice in PBS (Phosphate Buffer Saline) and plated in quadruplicate into microtiter-plate wells in 100 μL culture media with or without our various compounds at increasing concentrations (0, 1, 5, 10, 20, and 50 μM) for 1, 2, and 3 days. After 3 h of incubation at 37 °C with 20 μL MTS/well, the plates were read using an ELISA microplate reader (Thermo, Electrocorporation, Waltham, MA, USA) at 490 nm. The amount of color produced was directly proportional to the number of viable cells. The results are expressed as the concentrations inhibiting cell growth by 50% after a 3-day incubation period. The 50% cytotoxic concentrations (CC50) were determined by linear regression analysis, expressed in μM ± SD (Microsoft Excel).

A2780 = assay: MTT antiproliferative assay, A2780; format: cell-based, human; details: MTT, 72 h, ovarian cancer cells, read-out: IC50 Values (μM) ± SEM A2780
Method: (§2) The growth-inhibitory effects of the compounds were determined by MTT (3-(4,5-dimethylthiazol-2-yl)-2,5-diphenyltetrazolium bromide) assay on selected cell lines, including HeLa and SiHa (cervical cancers), MDA-MB-231 and MCF-7 (breast cancers), and A2780 ovarian cancer cells. All cell lines were purchased from the European Collection of Cell Cultures (Salisbury, UK) except SiHa, which was obtained from the American Tissue Culture Collection (Manassas, VA, USA). The cells were kept in minimum essential medium supplemented with 10% fetal bovine serum, 1% non-essential amino acids, and 1% penicillin-streptomycin-amphotericin-B at 37 °C in a humidified atmosphere containing 5% CO2. Media and supplements were obtained from Lonza Group Ltd., (Basel, Switzerland). Cancer cells were seeded onto 96-well plates (5000 cells/well), after an overnight incubation the test compounds were added in six concentrations (0.1, 0.3, 1.0, 3.0, 10.0, 30.0 µM) and incubated for 72 h under cell-culture condition. After the incubation, 20 μL of 5 mg/mL MTT solution was added to each well and incubated for a further 4 h. The medium was removed, and the precipitated formazan crystals were dissolved in DMSO for 30 min under shaking at 37 °C. The absorbance was measured at 545 nm with a microplate reader. Untreated cells were included as controls. Calculations were performed by means of the GraphPad Prism 5.01 software (GraphPad Software Inc., San Diego, CA, USA). At least two independent determinations were performed with 5 parallel wells for each condition.

MCF-7 = assay: MTT antiproliferative assay, MCF-7; format: cell-based, human; details: MTT, 72 h, breast cancer cells, read-out: IC50 Values (μM) ± SEM MCF-7
Method: as §2

SiHa = assay: MTT antiproliferative assay, SiHa; format: cell-based, human; details: MTT, 72 h, cervical cancer cells, read-out: IC50 Values (μM) ± SEM SiHa
Method: as §2

MDA-MB-231 = assay: MTT antiproliferative assay, MDA-MB-231; format: cell-based, human; details: MTT, 72 h, breast cancer cells, read-out: IC50 Values (μM) ± SEM MDA-MB-231
Method: as §2

Fc-MYCT = assay: FRET-melting, Fc-MYCT; format: binding; details: ligand 2 μM, DNA 0.2 μM, K+ conditions, pH 7.2
Method: as §1

[1] = tested on: human telomeric sequence F21T; assay: FRET-melting, F21T; format: binding; details: ligand 2 μM, DNA 0.2 μM, 10 mM KCl, 90 mM LiCl, pH 7.2
Method: as §1

HeLa = assay: MTT antiproliferative assay, HeLa; format: cell-based, human; details: MTT, 72 h, cervical cancer cells, read-out: IC50 Values (μM) ± SEM HeLa
Method: as §2

Molecule | ΔT1/2 (°C) FBCL-2T (FBCL-2T) [°C] | ΔT1/2 (°C) FdxT (FdxT) [°C] | ΔT1/2 (°C) FK-RAST (FK-RAST) [°C] | IC50 (K562) [µM] | IC50 (A2780) [µM] | IC50 (MCF-7) [µM] | IC50 (SiHa) [µM] | IC50 (MDA-MB-231) [µM] | ΔT1/2 (°C) Fc-MYCT (Fc-MYCT) [°C] | ΔT1/2 (°C) F21T [1] [°C] | IC50 (HeLa) [µM] | IC50 (K562; Homo sapiens, K562, 72 h) [µM] | IC50 (A2780; Homo sapiens, A2780) [µM] | IC50 (MCF-7; Homo sapiens, MCF7, 72 h) [µM] | IC50 (SiHa; Homo sapiens, SiHa) [µM] | IC50 (MDA-MB-231; Homo sapiens, MDA-MB-231, 72 h) [µM] | IC50 (HeLa; Homo sapiens, HeLa) [µM]
2,4-bis{4-[(4-(3-methylpiperazin-1-yl)propyl)aminomethyl]phenyl}-6-phenylquinazoline [Compound 12d] | 9.7 ± 0.06 | 0.5 ± 0.3 | 15.5 ± 0.5 | 17 ± 0.4 | 1.74 ± 0.11 | 1.01 ± 0.3 | 1.28 ± 0.27 | 1.44 ± 0.17 | 8.4 ± 0.9 | 15.8 ± 1.2 | 1.32 ± 0.02 |  |  |  |  |  | 
CN(C)CCCCNCc1ccc(-c2nc(-c3ccc(CNCCCCN(C)C)cc3)c3cc(-c4ccccc4)ccc3n2)cc1 [Compound 12c, 2,4-bis{4-[(4-dimethylaminobutyl)aminomethyl]phenyl}-6-phenylquinazoline] | 16.4 ± 0.4 | 3.8 ± 0.8 | 24.5 ± 0.7 |  |  |  |  |  | 17.7 ± 0.8 | 28.0 ± 0.4 |  | 7 ± 0.2 | 2.04 ± 0.54 | 1.44 ± 0.03 | 0.76 ± 0.01 | 1.07 ± 0.42 | 2.21 ± 0.86
CN(C)CCCCCNCc1ccc(-c2nc(-c3ccc(CNCCCCCN(C)C)cc3)c3ccc(-c4ccccc4)cc3n2)cc1 [Compound 12h, 2,4-bis{4-[(5-dimethylaminopentyl)aminomethyl]phenyl}-7-phenylquinazoline] | 18.2 ± 1.7 | 2.7 ± 1.0 | 28.6 ± 2.1 |  |  |  |  |  | 18.7 ± 0.2 | 28.1 ± 2.3 |  | 13 ± 0.2 | 1.43 ± 0.07 | 1.19 ± 0.27 | 0.75 ± 0.01 | 1.1 ± 0.38 | 2.31 ± 0.76
CN(C)CCCNCc1ccc(-c2nc(-c3ccc(CNCCCN(C)C)cc3)c3cccc(-c4ccccc4)c3n2)cc1 [Compound 12k, 2,4-bis{4-[(3-dimethylaminopropyl)aminomethyl]phenyl}-8-phenylquinazoline] | 9.5 ± 0.2 | 0.8 ± 0.1 | 13.0 ± 0.4 |  |  | 1.24 ± 0.14 |  |  | 9.9 ± 1.4 |  |  | 7 ± 0.1 | 1.34 ± 0.14 | 1.12 to 1.24 | 1.01 ± 0.27 | 1.36 ± 0.06 | 1.19 ± 0.24
CN(C)CCCCNCc1ccc(-c2nc(-c3ccc(CNCCCCN(C)C)cc3)c3cccc(-c4ccccc4)c3n2)cc1 [Compound 12l, 2,4-bis{4-[(4-dimethylaminobutyl)aminomethyl]phenyl}-8-phenylquinazoline] | 17.2 ± 1.2 | 2.9 ± 0.2 | 18.7 ± 0.8 |  |  |  |  |  | 14.2 ± 1.1 | 24.9 ± 0.3 |  | 7 ± 0.2 | 2.08 ± 0.48 | 1.45 ± 0.02 | 1.14 ± 0.51 | 1.55 ± 0.12 | 1.39 ± 0.16
CC1CN(CCCNCc2ccc(-c3nc(-c4ccc(CNCCCN5CCNC(C)C5)cc4)c4cccc(-c5ccccc5)c4n3)cc2)CCN1 (stereo not shown) [Compound 12m, 2,4-bis{4-[(4-(3-methylpiperazin-1-yl)propyl)aminomethyl]phenyl}-8-phenylquinazoline] | 15.5 ± 0.3 | 2.2 ± 0.2 | 18.2 ± 0.6 | 7 ± 0.2 | 2.1 ± 0.48 | 1.22 ± 0.19 | 0.88 ± 0.14 | 2 ± 0.45 | 14.6 ± 0.9 | 23.3 ± 0.7 | 1.17 ± 0.23 |  |  |  |  |  | 
CN1CCN(CCCCNCc2ccc(-c3nc(-c4ccc(CNCCCCN5CCN(C)CC5)cc4)c4cccc(-c5ccccc5)c4n3)cc2)CC1 [Compound 12n, 2,4-bis{4-[(4-(4-methylpiperazin-1-yl)butyl)aminomethyl]phenyl}-8-phenylquinazoline] | 12.0 ± 2.0 | 2.4 ± 0.7 | 18.0 ± 2.5 |  |  |  |  |  | 17.0 ± 2.0 | 20.7 ± 3.1 |  | 14 ± 0.3 | 7.1 ± 1.15 | 4.17 ± 0.5 | 1.89 ± 0.74 | 3.94 ± 0.54 | 3.51 ± 0.17
CN(C)CCCCNCc1ccc(-c2cc(-c3ccc(CNCCCCN(C)C)cc3)c3cc(-c4ccccc4)ccc3n2)cc1 [Compound 13b, 2,4-bis{4-[(4-dimethylaminobutyl)aminomethyl]phenyl}-6-phenylquinoline] | 11.1 ± 2.6 | 1.5 ± 0.6 | 19.6 ± 3.5 |  |  |  |  |  | 13.8 ± 3.0 | 13.6 ± 2.9 |  | 13 ± 0.4 | 6.49 ± 1.76 | 3.03 ± 0.64 | 1.76 ± 0.61 | 3.68 ± 0.8 | 3.58 ± 0.18
